# From patent US20110263454A1, “Methods of Identifying Functional Characteristics of Promoters, Transcription Modifying Proteins and Transcription Modulating Agents” (Salk Institute for Biological Studies, priority 2008, published 2011)
# Tests used:
# [1] = test system: TRAP expression; settings: human peripheral mononuclear cells; Reddy 1996; cited from earlier work
# [2] = test system: pre-adipocytes; settings: treatment of pre-adipocytes; Hutley 2004, Newell 2006; cited from earlier work
# [3] = test system: FGF1A mRNA in white adipose tissue (WAT); test: FGF1A mRNA in white adipose tissue after PPARγ ligand treatment; assay type: in vivo; settings: fed mice, oral 5 mg/kg for 3 days
# Experimental: To test this hypothesis the expression of FGF1A in response to feeding, fasting and PPARγ ligand treatment was determined (FIG. 47, left panel).
molecule,measurement,setting,value
ferric protoporphyrin IX [hemin],TRAP expression at the transcriptional level,[1],inhibited
"recombinant FGF1: recombinant FGF1, fibroblast growth factor polypeptide",effect on pre-adipocytes,[2],increased proliferation and adipogenesis
"CN(CCOc1ccc(CC2SC(=O)NC2=O)cc1)c1ccccn1 (stereo not drawn) [BRL, BRL49653 (Rosiglitazone)]",mRNA levels of FGF1A,[3],significantly increased
